The record followed here is US8324427B2, “Substances analogous to MK8383 and agricultural and horticultural disease control agents” (Meiji Seika Kaisha, Ltd., priority 2008, dated 2012).

For series [1], the system named is Botrytis cinerea. In words: Evaluation of control effect (preventive value) on cabbage leaf discs. To be noted: 100 ppm test solution sprayed on cabbage leaf discs; Botrytis cinerea spore inoculation; three days after the infection. It is filed as in vivo. The method, then: The compounds obtained in Examples 1 to 3 were dissolved in acetone to bring the concentration of the compounds to 1 mg/mL. Ten-fold diluted Neoesterin (manufactured by KUMIAI CHEMICAL INDUSTRY CO., LTD.) (1 μL) was added to 20 μL of the solutions. Further, 180 μL of deionized water was added thereto to regulate the concentration to 100 ppm to prepare test solutions. The control effect was measured by measuring the preventive value of each of the test solutions. The preventive value was calculated by the following method. At the outset, leaves cut by a leaf punch off from the leaves at the third and fourth stages of cabbage were allowed to stand still on a multi-well plate. An appropriate amount of the test solution was sprayed followed by air drying. Next, a spore suspension (2.0×10^5 cells/mL) of Botrytis cinerea was prepared as an inoculating microorganism liquor and was inoculated by spraying in an amount of 20 mL per 7 to 10 multi-well plate. Infection with Botrytis cinerea was carried out in a light shielding chamber (temperature 21° C., humidity about 100%), and the preventive value was calculated three days after the infection. […] 0; No pathogenesis was found. 1; Slight pathogenesis was found. 2; Control effect was found as compared with untreated plot, although diseases were developed. 3; Phathogenesis equivalent to that in untreated plot was found. [formula]

Series [2] can be described thus: Evaluation of photostability (residual ratio after exposure to light). It counts as physicochemical. To be noted: dry film exposed to sunlight lamp 24 hr, 25° C., humidity 60%, 30,000 lux, UV 300 to 400 μW/cm^2; HPLC; 0 hr = 100%. The method, then: The compounds obtained in Examples 1 to 3 were dissolved in acetone, and the concentration of the compounds was adjusted to 200 μg/mL (100 μg/mL for the compound of Example 3) to give test solutions. The photostability was determined by measuring the residual ratio of compound after exposure to light. The residual ratio was calculated by the following method. The test solution (500 μL) was dispensed in a glass Petri dish having a diameter of 5 cm, and the solvent was removed by evaporation under light shielding conditions to form a dry film. The dry film was exposed to a sunlight lamp within a chamber (temperature 25° C., humidity 60%) and was recovered 24 hr after the start of the exposure. The exposed film was washed with 500 μL of methanol and was analyzed by HPLC (manufactured by Nihon Waters K.K.). The residual ratio (concentration ratio after the elapse of each hour when the residual ratio at 0 hr was presumed to be 100%) was calculated by regarding the peak area as the concentration of the compound.

For series [3], the system named is Botrytis cinerea. In words: Antimicrobial activity test (extension of hypha). It is filed as cell-based. Further details: key to the marks not given beside the values. To be noted: final concentration 12.5 ppm, 3 days.
The subject of the next series is Alternaria kikutiana. In words: Antimicrobial activity test (extension of hypha). Also noted: key to the marks not given beside the values. It is filed as cell-based. Particulars: final concentration 12.5 ppm, 3 days.
Another series deals with Cercospora beticola. In words: Antimicrobial activity test (extension of hypha). Further details: key to the marks not given beside the values. To be noted: final concentration 12.5 ppm, 3 days. It is filed as cell-based.
The test system of series [4] is Colletotrichum lagenarium. In words: Antimicrobial activity test (extension of hypha). It is filed as cell-based. Further details: key to the marks not given beside the values. Particulars: final concentration 12.5 ppm, 3 days.
Another series concerns Pyricularia oryzae. It counts as cell-based. Further details: key to the marks not given beside the values. To be noted: final concentration 12.5 ppm, 3 days.
The test system of another series is Rhizoctonia solani. In words: Antimicrobial activity test (extension of hypha). It counts as cell-based. Further details: key to the marks not given beside the values. Particulars: final concentration 12.5 ppm, 3 days.
For the next series, the system named is Leptosphaeria nodorum. Description: Antimicrobial activity test (extension of hypha). It counts as cell-based. Also noted: key to the marks not given beside the values. To be noted: final concentration 12.5 ppm, 3 days.

As to `C/C=C(\C)[C@H]1[C@@H](/C=C/C=C/C(=O)O)[C@H]2[C@@H]([C@H]3C[C@]31C)[C@@H](O)CC[C@@H]2C` [Compound of Example 1, (2E,4E)-5-{(1aR,2R,3S,3aS,4S,7S,7aS,7bR)-2-[(E)-but-2-en-2-yl]-decahydro-7-hydroxy-1a,4-dimethyl-1H-cyclopropa[a]naphthalen-3-yl}penta-2,4-dienoic acid], the Preventive value in the series with Botrytis cinerea [1] is on record as 92. The “Residual ratio after 24 hr” value in [2] is 100%.

Take `C/C=C(/C)[C@H]1[C@@H](/C=C/C=C/C(=O)O)[C@H]2[C@@H](C[C@@H]1C)[C@@H](O)CC[C@@H]2C` [Compound of Example 3, (2E,4E)-5-{(1S,4S,4aS,5S,6R,7S,8aR)-6-[(Z)-but-2-en-2-yl]-decahydro-1-hydroxy-4,7-dimethylnaphthalen-5-yl}penta-2,4-dienoic acid]: the Preventive value in the series with Botrytis cinerea [1] was 100. For the same molecule, the “Residual ratio after 24 hr” value in series [2] amounted to 95%. Besides, the Inhibition of extension entry was “+++” with Botrytis cinerea [3]; “++” in the series with Alternaria kikutiana; “+++” in the series with Cercospora beticola; “++” in series [4]; “++” in the series on Pyricularia oryzae; “+++” in the series on Rhizoctonia solani. The Inhibition of extension result in the series on Leptosphaeria nodorum is given as “++”.

`C/C=C(\C)[C@H]1[C@@H](/C=C/C=C/C(=O)O)[C@H]2[C@@H](C[C@@H]1C)[C@@H](O)CC[C@@H]2C` [Compound of Example 2, (2E,4E)-5-{(1S,4S,4aS,5S,6R,7S,8aR)-6-[(E)-but-2-en-2-yl]-decahydro-1-hydroxy-4,7-dimethylnaphthalen-5-yl}penta-2,4-dienoic acid]: the Preventive value in the series with Botrytis cinerea [1] was 100. For the same molecule, in series [2], the “Residual ratio after 24 hr” value was determined as 108%.
